Our source for the TGI and GI50 values is PubChem BioAssay (NCI).

Some test systems named below: NCI-H23 lung; MOLT-4 leukemia; SK-MEL-2 melanoma; DU-145 prostate; HOP-62 NSCLC; UO-31 renal; NCI-H522 lung; BT-549 breast; TK-10 renal; SF-268 CNS; SN12C renal; 786-0 renal.
Common to all, as to experiment: NCI-60 cell line screen, 48 h

Molecules are shown by their SMILES. Where “and” joins values, the source holds several entries; their conditions need not be identical. Equal entries are not always repeated.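 Five concentrations, 48 hours, 96-well plates. The concentration for 50% growth inhibition is given as GI50. TGI is the concentration that stops growth completely.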

For `CCOc1cccc(-c2cc(=O)c3cc4c(cc3[nH]2)OCO4)c1`, the TGI in the assay on NCI-H23 lung is > 100 µM; in the assay with MOLT-4 leukemia it was > 100 µM; in the assay with SK-MEL-2 melanoma it was 24.9 µM; in the assay with DU-145 prostate, > 100 µM; in the assay with HOP-62 NSCLC it was > 100 µM; in the assay with UO-31 renal it was 35.2 µM. Moreover, the TGI is 0.684 µM in the assay with NCI-H522 lung; > 100 µM in the assay with BT-549 breast; 8.45 µM in the assay with TK-10 renal; > 82.1 µM with SF-268 CNS; 5.38 µM with SN12C renal; 7.06 µM in the assay on 786-0 renal.

Take `CC(=O)Oc1ccc2cc(-c3ccc(OC(C)=O)c(OC(C)=O)c3)c(=O)oc2c1`: the TGI with NCI-H23 lung, in the assay with MOLT-4 leukemia, in the assay with SK-MEL-2 melanoma, in the assay on DU-145 prostate, in the assay with HOP-62 NSCLC and in the assay with UO-31 renal was > 100 µM each time. The TGI with NCI-H522 lung, with BT-549 breast, with TK-10 renal, in the assay on SF-268 CNS, in the assay on SN12C renal and in the assay on 786-0 renal was > 100 µM each time.

`C=CCCCC1(C)CCNC1=S` (centres undefined): the TGI in the assay on NCI-H23 lung, in the assay on MOLT-4 leukemia, with SK-MEL-2 melanoma, with DU-145 prostate, in the assay on HOP-62 NSCLC and in the assay with UO-31 renal was > 100 µM throughout. Besides, the TGI in the assay on NCI-H522 lung, with BT-549 breast, with TK-10 renal, in the assay on SF-268 CNS, in the assay with SN12C renal and in the assay on 786-0 renal was > 100 µM in each case.

Consider `Cc1cn(C2CCN(CC3COC(C)(C)O3)O2)c(=O)[nH]c1=O` (centres undefined), for which the TGI in the assay on NCI-H23 lung, with MOLT-4 leukemia, in the assay on SK-MEL-2 melanoma, in the assay on DU-145 prostate, with HOP-62 NSCLC and in the assay with UO-31 renal was > 100 µM each time. Moreover, the TGI in the assay with NCI-H522 lung, in the assay with BT-549 breast, with TK-10 renal, in the assay on SF-268 CNS, in the assay on SN12C renal and with 786-0 renal was > 100 µM throughout.

In the case of `CC1=CC(=O)N(n2c(-c3ccccc3)n[nH]c2=O)C1=O`, the TGI in the assay on NCI-H23 lung, in the assay with MOLT-4 leukemia, with SK-MEL-2 melanoma, in the assay on DU-145 prostate, in the assay with HOP-62 NSCLC and in the assay on UO-31 renal was > 100 µM in each case. The TGI in the assay on NCI-H522 lung, in the assay on BT-549 breast, in the assay on TK-10 renal, in the assay on SF-268 CNS, in the assay on SN12C renal and with 786-0 renal was > 100 µM in each case.

As to `COc1cc(CNc2c3ccccc3nc3ccccc23)cc(OC)c1OC`, the TGI in the assay on NCI-H23 lung was 18.5 µM; in the assay with MOLT-4 leukemia it was > 22 µM; in the assay with SK-MEL-2 melanoma it was 5.66 µM; in the assay with DU-145 prostate it was > 52.1 µM; in the assay with HOP-62 NSCLC, 11.7 µM; in the assay with UO-31 renal, 11.5 µM. The TGI with NCI-H522 lung is 11.6 µM; with BT-549 breast it was 16.2 µM; in the assay with TK-10 renal, 37.5 µM; with SF-268 CNS, 16.5 µM; in the assay on SN12C renal, 15.3 µM; in the assay with 786-0 renal, 14.3 µM.

As for `CCNc1nnc(-c2ccccc2Nc2ccccc2-c2nnc(NCC)s2)s1`, the TGI with NCI-H23 lung is 73.3 µM; in the assay on MOLT-4 leukemia, > 78.3 µM; with SK-MEL-2 melanoma, 31 µM; with DU-145 prostate, 40.1 µM; with HOP-62 NSCLC, > 100 µM; in the assay on UO-31 renal it was 21.3 µM. Further, the TGI in the assay with NCI-H522 lung is 26.9 µM; with BT-549 breast, > 79.7 µM; with TK-10 renal, > 57.6 µM; with SF-268 CNS, 68.6 µM; in the assay on SN12C renal, > 49.7 µM; in the assay on 786-0 renal, 17 µM.

For `C=C1c2nc3ccccc3n2C=C(c2ccc(Cl)cc2)N1c1ccc(OCCN2CCCCC2)cc1`, the GI50 with NCI-H23 lung is > 100 µM; with MOLT-4 leukemia, 0.553 µM; with SK-MEL-2 melanoma, > 100 µM; with DU-145 prostate, > 100 µM; in the assay on HOP-62 NSCLC, > 100 µM; in the assay with BT-549 breast it was > 100 µM. Besides, the GI50 in the assay with TK-10 renal was > 100 µM. Besides, the TGI with NCI-H23 lung is > 100 µM; in the assay on MOLT-4 leukemia, > 45 µM and 9.22 µM; with SK-MEL-2 melanoma it was > 100 µM; with DU-145 prostate, > 100 µM; with HOP-62 NSCLC, > 100 µM; in the assay on UO-31 renal it was > 45 µM. For the same compound, the TGI in the assay with NCI-H522 lung was 45 µM; in the assay on BT-549 breast it was > 100 µM; in the assay with TK-10 renal, > 100 µM; in the assay with SF-268 CNS, 45 µM; in the assay on SN12C renal it was > 45 µM; with 786-0 renal, > 45 µM.

Consider `C(#CC1(Nc2ccccc2)CCN(Cc2ccccc2)CC1)C1(Nc2ccccc2)CCN(Cc2ccccc2)CC1`, for which the TGI in the assay with NCI-H23 lung was > 56.2 µM; in the assay on MOLT-4 leukemia, 32.7 µM; in the assay with SK-MEL-2 melanoma, 20.1 µM; in the assay on DU-145 prostate it was > 56.2 µM; in the assay with HOP-62 NSCLC it was 40.7 µM; in the assay with UO-31 renal it was > 84.7 µM. The TGI in the assay with NCI-H522 lung was > 56.2 µM; in the assay with BT-549 breast it was > 100 µM; in the assay on TK-10 renal, 39.4 µM; with SF-268 CNS, 47.8 µM; in the assay on SN12C renal, > 56.2 µM; in the assay with 786-0 renal, 39.5 µM.

As for `C=C(Cl)C(C)(Cl)CCC(Cl)C(C)C` (centres undefined), the TGI in the assay on NCI-H23 lung, in the assay with MOLT-4 leukemia, in the assay with SK-MEL-2 melanoma, in the assay on DU-145 prostate, with HOP-62 NSCLC and with UO-31 renal was > 100 µM in each case. Moreover, the TGI with NCI-H522 lung, in the assay with BT-549 breast, in the assay with TK-10 renal, in the assay on SF-268 CNS, in the assay with SN12C renal and with 786-0 renal was > 100 µM each time.

Regarding `Nc1cc(Cl)ccc1SSc1ccc(Cl)cc1N`, the TGI was 20.4 µM in the assay with NCI-H23 lung; > 100 µM in the assay with MOLT-4 leukemia; 35 µM with SK-MEL-2 melanoma; 29.2 µM in the assay with DU-145 prostate; 29.4 µM in the assay with HOP-62 NSCLC; 22.1 µM in the assay on UO-31 renal. The TGI with NCI-H522 lung came to 23.8 µM; in the assay with BT-549 breast, 35.1 µM; in the assay with TK-10 renal, 40.8 µM; with SF-268 CNS it was 83.5 µM; in the assay with SN12C renal, 28.7 µM; in the assay with 786-0 renal it was 25.9 µM.
